Measurements from US20110294734A1, “PHARMACEUTICAL COMPOSITIONS COMPRISING TGF-BETA 1 INHIBITOR PEPTIDES” (DIGNA BIOTECH, S.L., priority 2009, published 2011).
Where two headings read alike, the source gives them in different places. No end group written: not given here.

Assay: Solubility study of P144
Assay type: physicochemical

TSLDASIIWAMMQN [Formula P144, TSLDASIIWAMMQN]
Solubility (Dicloromethane (DCM)): insoluble | Solubility (Dimethyl sulfoxide (DMSO)): very soluble | Solubility (Dimethylformamide (DMF)): insoluble | Solubility (Ethanol): insoluble | Solubility (Gantrez ® S97 2-5%): insoluble | Solubility (Glycerol): insoluble | Solubility (Hexane): insoluble | Solubility (Human albumin 20%, read-out: Solubility): 250 µg/mL | Solubility (Hydroxy-propyl-β-cyclodextrin 5%, read-out: Solubility): 250 µg/mL | Solubility (PEG 400): insoluble | Solubility (PLASDONE 5%): insoluble | Solubility (Pluronic F68 (1-10%)): insoluble | Solubility (Proplylene glycol): insoluble | Solubility (Sodium deoxycholate 5%): insoluble | Solubility (Tetrahydrofurane (THF)): insoluble | Solubility (Urea 10%, read-out: Solubility): 250 µg/mL | Solubility (distilled water): insoluble
